Source: patent publication US9119396B2, “Method for promoting plant growth” (SUMITOMO CHEMICAL COMPANY, LIMITED, priority 2011, dated 2015)

Legend:
Format in all cases: in vivo
[1] = test system: Corn (cultivar: Kuromochi); assay: Test Example 2: promotion of growth by treatment of corn seeds; conditions: corn seed treatment, 50 g per 100 kg of seeds; cultivated 18 days at 27° C.
Description: Evaluation Test for Promotion of Growth by Treatment of Corn Seeds Corn (cultivar: Kuromochi) A blank slurry solution containing 10% (V/V) color coat red (Becker Underwood, Inc.), 10% (V/V) CF-Clear (Becker Underwood, Inc.) and 1.66% Maxim 4FS (Syngenta) was prepared. A slurry solution was prepared by dissolving the present compound 1 in the blank slurry solution such that 50 g of the compound is applied to each 100 kg of corn seeds. In a 50-ml centrifuge tube (manufactured by BD Japan), 0.35 ml of the slurry solution was placed for each 14.4 g of corn seeds and stirred until the solution was dried, thereby coating the seeds. In addition, seeds were coated with the blank slurry solution and used as seeds for a non-treated group. One of the treated seeds was sown in culture soil (AISAI) in each pot (55 mm in diameter×58 mm in height) and cultivated for 18 days under the conditions of a temperature of 27° C., an illuminance of 5,000 lux, and a day length of 16 hours. After the cultivation, the fresh weight of the overground part of the plants was measured. The experiment was performed in three replications for each treatment condition and the average weight per individual was calculated. […]

[2] = test system: Corn (cultivar: Kuromochi); assay: Test Example 3: reduction of low-temperature stress by treatment of corn seeds; conditions: corn seed treatment, low-temperature stress 2.5±1° C. 4 days, then 4 days at 27° C.
Description: Evaluation Test for Reduction of Low-Temperature Stress by Treatment of Corn Seeds Corn (cultivar: Kuromochi) A blank slurry solution containing 10% (V/V) color coat red (Becker Underwood, Inc.), 10% (V/V) CF-Clear (Becker Underwood, Inc.) and 1.66% Maxim 4FS (Syngenta) was prepared. A slurry solution was prepared by dissolving the present compound 1 in the blank slurry solution such that 0.5 g, 5 g or 50 g of the compound is applied to each 100 kg of corn seeds. In a 50-ml centrifuge tube (manufactured by BD Japan), 0.35 ml of the slurry solution was placed for each 14.4 g of corn seeds and stirred until the solution was dried, thereby coating the seeds. In addition, seeds were coated with the blank slurry solution and used as seeds for a non-treated group. One of the treated corn seeds was sown in culture soil (AISAI) in each pot (55 mm in diameter×58 mm in height) and cultivated for 10 days under the conditions of a temperature of 27° C., an illuminance of 5,000 lux, and a day length of 16 hours. The grown seedlings were used for the test. The pots at 10 days after the sowing were placed into an artificial weather control room (VHT-2-15P-NC2-S, manufactured by Nippon Medical & Chemical Instruments Co., Ltd) and cultivated for 4 days under the following conditions: • temperature: 2.5±1° C., day length: 16 hours, and illuminance: 5,000 lux. <Evaluation Method> After the low-temperature stress treatment, the plants were cultivated for 4 days under the conditions of a temperature of 27° C., an illuminance of 5,000 lux, and a day length of 16 hours. Then, the fresh weight of the overground part of the plants was measured. The experiment was performed in five replications for each treatment condition and the average weight per individual was calculated. As a result, the fresh weight of the overground part of plants in the treated group of applying 0.5 g, 5 g or 50 g of the present compound 1 to each 100 kg of seeds was much heavier than that in the non-treated group.

[3] = test system: Benthamiana tobacco (Nicotiana benthamiana); assay: Test Example 9: reduction of low-temperature stress in hydroponics of tobacco; conditions: tobacco seedlings, medium with 0.1 ppm compound for 7 days; low-temperature stress 1.5±1.0° C. 7 days, then 3 days at 22° C.
Description: Evaluation Test for Reduction of Low-Temperature Stress in Hydroponics of Tobacco (Nicotiana benthamiana) Benthamiana tobacco (Nicotiana benthamiana) DMSO solutions containing each of the present compounds 1, 4 and 5 at a concentration of 100 ppm were prepared. […] These media were used in the treated-group. In a non-treated group, a medium obtained by adding a 1/1,000 volume of DMSO to a Murashige-and-Skoog medium at ½ concentration was used. The seeds of tobacco (Nicotiana benthamiana) were sown on 5 μL of the medium, and incubated at 22° C. overnight. Thereto was added 45 μL of a medium containing each present compound at a concentration of 0.1 ppm, and cultivated for 7 days under the conditions of an illuminance of 4,000 lux, a temperature of 22° C. and a day length of 16 hours, thereby treating the seedlings of tobacco (Nicotiana benthamiana) with the test compound. In the non-treated group, 45 μL of a medium obtained by adding a 1/1,000 volume of DMSO to a Murashige-and-Skoog medium at ½ concentration was added, and treated in the same manner as above. The seedlings of tobacco (Nicotiana benthamiana) treated with the present compounds were cultivated for 7 days under the conditions of an illuminance of 2,000 lux, a temperature of 1.5±1.0° C., and a day length of 16 hours, thereby subjecting to low-temperature stress treatment. The plants of tobacco (Nicotiana benthamiana) subjected to low-temperature stress treatment was cultivated for 3 days under the conditions of an illuminance of 4,000 lux, a temperature of 22° C., and a day length of 16 hours, and then the green leaf area of the plants was visually evaluated. Completely dead plant was scored as 0, the plant without low-temperature stress treatment was scored as 5, the green area was rated on a 6-point scale in ⅕ increments, and the score of not less than 1 was regarded as effective in reducing the stress. As a result of visual evaluation, the green leaf area of plants in the treated group, wherein the plants were treated with the present compound 1, 4 or 5 was much larger than that in the non-treated group.

Structure (SMILES): COC(=O)c1cc2cc(C(F)(F)F)ccc2s1 [compound 1]
- fresh weight of the overground part of plants vs non-treated group [1]: much heavier
- fresh weight of the overground part of plants vs non-treated group ([2]; 0.5 g per 100 kg of seeds): much heavier
- fresh weight of the overground part of plants vs non-treated group ([2]; 5 g per 100 kg of seeds): much heavier
- fresh weight of the overground part of plants vs non-treated group ([2]; 50 g per 100 kg of seeds): much heavier
- green leaf area of plants (visual evaluation) vs non-treated group [3]: much larger
